Laboratory results from US20160215348A1, “GENE EXPRESSION BIOMARKERS AND THEIR USE FOR DIAGNOSTIC AND PROGNOSTIC APPLICATION IN PATIENTS POTENTIALLY IN NEED OF HDAC INHIBITOR TREATMENT” (4SC AG, priority 2013, published 2016).

Key:
Assay type in all cases: cell-based, human
[1] = test system: CCDC43; assay: Gene expression in peripheral blood of healthy donors treated ex vivo; conditions: standardized to 0 h
Method: (§1) Hatched columns relate to blood, black columns relate to HepG2 cells, white boxes relate to HT 29 cells. Values are standardized to the value at 0 h.
(§2) Samples were obtained and gene expressions were determined with the methods as described herein below. The results are shown in below table 3 and FIGS. 2 and 3
(§3) The above values represent a mean value which was determined on the basis of 2 biological replicates, for each of which 3 technical replicates were prepared. […] The level of gene expression determined in peripheral blood samples can be correlated with a certain level of activity of HDAC in the diseased cells, e.g. by applying an appropriate conversion factor or conversion table, which may be determined for each specific disease, and/or patient group.
(§4) The High-Capacity cDNA Reverse Transcription Kit (Applied Biosystems) was used for reverse transcription of total RNA into single stranded cDNA with the aid of random hexamer primers according to the manufacturer's instructions. Briefly, for the reaction mix total RNA was mixed with random primers in excess, 4 mM dNTP Mix, 2.5 U/reaction, reverse transcriptase and nuclease free water. The reverse transcription took place in a thermal cycler under the following conditions: 25° C. for 10 min, 37° C. for 120 min, 85° C. for 5 min, followed by 4° C. for cooling down the reaction. The reverse transcription can be done in principle as well with other reverse transcriptases, primers and temperature protocols. Whenever possible, 250 ng total RNA were reverse transcribed if not available, lower amounts were used.
(§5) Custom TaqMan® Arrays (Applied Biosystems) in Format 16 were designed for the gene expression analysis of biomarkers of the present invention and housekeeping genes as outlined in table 4. These arrays allow for qPCR analysis of 8 samples per card. Of course, all reactions can be done as well by conventional qPCR analysis with specific primers.

[2] = test system: GAPDH; assay: as above; conditions: standardized to 0 h
Method: as §1, §2, §3, §4, §5

[3] = test system: KDELC2; assay: as above; conditions: standardized to 0 h
Method: as §1, §2, §3, §4, §5

[4] = test system: HIST2H4A/B; assay: as above; conditions: standardized to 0 h
Method: as §1, §2, §3, §4, §5

[5] = test system: 18S; assay: as above; conditions: standardized to 0 h
Method: as §1, §2, §3, §4, §5

[6] = test system: ZFP64; assay: as above; conditions: standardized to 0 h
Method: as §1, §2, §3, §4, §5

[7] = test system: DPP3; assay: as above; conditions: standardized to 0 h
Method: as §1, §2, §3, §4, §5

[8] = test system: MICALL1; assay: as above; conditions: standardized to 0 h
Method: as §1, §2, §3, §4, §5

[9] = test system: TBP; assay: as above; conditions: standardized to 0 h
Method: as §1, §2, §3, §4, §5

[10] = test system: Histone H3; assay: Nuclear protein extraction and Western blot, HepG2 cells (nuclear loading control); conditions: 5 μM, 24 h, vs 0.1% DMSO
Method: After isolating nuclear fractions, ZFP64 protein levels were detected by Western Blot analysis. Histone H3 serves as nuclear loading control.
4 h upon seeding, HepG2 cells were treated with either 0.1% DMSO or 5 μM resminostat.
24 h upon resminostat treatment, cells were washed once with PBS before scraping and harvesting in cold PBS and transferring the cells into pre-chilled 15 ml falcon tubes. […]
From each nuclear sample 4.4 μg protein (measured via BCA protein assay) were added to the same amount of Tricine buffer (supplemented with B-Mercaptoethanol), heated at 95° C. for 5 min and then placed on ice. […]
The next day, after washing four times with Washing Buffer, membranes were incubated for 1 h with the corresponding horseradish peroxidase-conjugated anti-rabbit IgG secondary antibody at a dilution of 1/50.000 and anti-Biotin at a dilution of 1/1.000 (diluted in 10 ml 1/10 diluted SuperBlock T20 Blocking Buffer). After washing four times with Washing Buffer, HRP signals were detected using enhanced chemoluminescence and exposed to X-ray films. Subsequently, the films were scanned using the Gel Doc 2000 and the corresponding signals were quantified with the “Quantity One” Software (BioRad).

Question: What does the source list for CN(C)Cc1ccc(S(=O)(=O)n2ccc(/C=C/C(=O)NO)c2)cc1 [resminostat, (E)-3-(1-(4-((dimethylamino)methyl)phenylsulfonyl)-1H-pyrrol-3-yl)-N-hydroxyacrylamide]?
Answer: Expression level, CCDC43 ([1]; 2 h): 0.29; Expression level, CCDC43 ([1]; 5 h): 0.35; Expression level, GAPDH (housekeeping gene) ([2]; 2 h): 1.16; Expression level, GAPDH (housekeeping gene) ([2]; 5 h): 1.38; Expression level, KDELC2 ([3]; 2 h): 0.47; Expression level, KDELC2 ([3]; 5 h): 0.07; Expression level, HIST2H4A/B ([4]; 2 h): 2.59; Expression level, HIST2H4A/B ([4]; 5 h): 4.11; Expression level, 18s (housekeeping gene) ([5]; 2 h): 0.83; Expression level, 18s (housekeeping gene) ([5]; 5 h): 0.66; Expression level, ZFP64 ([6]; 2 h): 0.24; Expression level, ZFP64 ([6]; 5 h): 0.15; Expression level, DPP3 ([7]; 2 h): 0.57; Expression level, DPP3 ([7]; 5 h): 0.29; Expression level, MICALL1 ([8]; 2 h): 0.30; Expression level, MICALL1 ([8]; 5 h): 0.10; Expression level, TBP (housekeeping gene) ([9]; 2 h): 1.03; Expression level, TBP (housekeeping gene) ([9]; 5 h): 1.11; Histone H3 levels (nuclear loading control) [10]: essentially unaltered
